Results from US20090142429A1, “SILICIBACTER SP. STRAIN USEFUL FOR GENETIC TRANSFORMATION OF MARINE ALGAE AND PRODUCTION OF ANTIBIOTIC AGENTS” (UNIVERSITY OF MARYLAND BIOTECHNOLOGY INSTITUTE, priority 2005, published 2009).

Test system: Silicibacter sp. strain TM1040
Experiment: Chemotaxis plate screening assay (change in motile colony morphology); as to Change in morphology with carbon source Alanine: key: −: minus indicates no change compared to distilled water or no attractant controls; +: either one or two pluses indicates moderate to strong alteration in motile colony phenotype (respectively); ++: either one or two pluses indicates moderate to strong alteration in motile colony phenotype (respectively); as to Change in morphology with carbon source Glucose: key: −: minus indicates no change compared to distilled water or no attractant controls; +: either one or two pluses indicates moderate to strong alteration in motile colony phenotype (respectively); ++: either one or two pluses indicates moderate to strong alteration in motile colony phenotype (respectively); as to Change in morphology with carbon source Glycerol: key: −: minus indicates no change compared to distilled water or no attractant controls; +: either one or two pluses indicates moderate to strong alteration in motile colony phenotype (respectively); ++: either one or two pluses indicates moderate to strong alteration in motile colony phenotype (respectively); as to Response: change in motile colony morphology of TM1040 in response to attractants, compared to the control: key: −: minus indicates no change compared to distilled water or no attractant controls; +: either one or two pluses indicates moderate to strong alteration in motile colony phenotype (respectively); ++: either one or two pluses indicates moderate to strong alteration in motile colony phenotype (respectively)
Assay type: cell-based
Settings: for Response: change in motile colony morphology of TM1040 in response to attractants, compared to the control / chemotactic response of TM1040 in plate assay: BM glycerol motility agar; for Change in morphology with carbon source Alanine / Change in morphology with carbon source Glucose / Change in morphology with carbon source Glycerol / Change in morphology with carbon source Succinate: BM motility agar; for Change in morphology with carbon source Alanine: alanine as single carbon source; for Change in morphology with carbon source Glucose: glucose as single carbon source; for Change in morphology with carbon source Glycerol: glycerol as single carbon source; for Change in morphology with carbon source Succinate: succinate as single carbon source
Protocol: Following 36 h of incubation, a putative attractant was placed approximately 5 cm from the site of inoculation (or 2.5 cm in front of the periphery of motile cells). Possible chemoattractant compounds were administered as either a sterile solid or concentrated stock solutions. The cells were further incubated for 16 h to allow for additional outward movement, at which time measurement of diameter, shape, and chemotaxis rings internal to the motile colony were made.
[…] Bacteria inoculated into the center of the agar consume nutrients and create a concentration gradient that increases outward from the point of inoculation. The bacteria sense the increasing gradient and swim outwards, seeking higher concentrations of nutrients, which is manifested as a symmetrical “motile” colony. If an attractant is placed at a short distance in front of the advancing motile colony, it forms a second gradient moving towards the oncoming cells that will affect the symmetry of the colony by reducing the net outward swimming of the bacteria.

SMILES | Response: change in motile colony morphology of TM1040 in response to attractants, compared to the control | Change in morphology with carbon source Alanine | Change in morphology with carbon source Glucose | Change in morphology with carbon source Glycerol | Change in morphology with carbon source Succinate | chemotactic response of TM1040 in plate assay
N[C@@H](CCC(=O)O)C(=O)O [glutamic acid] | ++ | − | − | ++ | + | 
OCC(O)CO [glycerol] | + |  |  |  |  | 
CC(=O)N[C@H]1C(O)O[C@H](CO)[C@@H](O)[C@@H]1O (stereo partly drawn) [N-acetylglucosamine] | ++ | + | − | ++ | + | responded positively
O=C[C@H](O)[C@@H](O)[C@H](O)CO [xylose] | − |  |  |  |  | 
N[C@@H](Cc1c[nH]c2ccccc12)C(=O)O [tryptophan] | + |  |  |  |  | 
O=C[C@@H](O)[C@H](O)[C@H](O)CO [arabinose] | − |  |  |  |  | no detectable change in the appearance of the motile colony
O=C(O)[C@@H]1CCCN1 [proline] | ++ |  |  |  |  | 
C[C@H](N)C(=O)O [Alanine] | ++ | − | − | ++ | + | 
O=C[C@H](O)[C@H](O)[C@H](O)CO [ribose] | − |  |  |  |  | 
OC[C@H]1O[C@@H](O[C@H]2[C@H](O)[C@@H](O)C(O)O[C@@H]2CO)[C@H](O)[C@@H](O)[C@H]1O (stereo partly drawn) [Lactose] | − | − | − | − | − | 
C[S+](C)[O-] [DMSO, dimethyl sulfoxide] | − | − | − | − | − | 
O=C(CO)[C@@H](O)[C@H](O)[C@H](O)CO [fructose] | − |  |  |  |  | no detectable change in the appearance of the motile colony
C[C@H](O)[C@@H](O)[C@@H](O)[C@H](O)C=O [fucose] | − |  |  |  |  | 
N[C@@H](CC(=O)O)C(=O)O [aspartic acid] | ++ |  |  |  |  | 
OC[C@H]1O[C@H](O[C@H]2[C@H](O)[C@@H](O)[C@H](O)O[C@@H]2CO)[C@H](O)[C@@H](O)[C@@H]1O [maltose] | + | ++ | − | + | ++ | responded positively
O=C(O)CCS [MPA, 3-mercaptopropionate] | + |  |  |  |  | only weakly
O=C[C@H](O)[C@@H](O)[C@@H](O)[C@H](O)CO [Galactose] | ++ | − | − | ++ | + | responded positively
